Measurements published in patent US20260262643A1, “HERBICIDAL BENZOXAZINES” (FMC CORPORATION, priority 2022, published 2026).

Columns and labels:
ragweed [1] = experiment: Test C postemergence; type: in vivo, Ambrosia artemisiifolia; conditions: 10 days, 0 to 100 scale (0 no effect, 100 complete control)
Summary of the method: (§1)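 Soil-applied (pre) and foliar (post, 1–2 leaf, 2–10 cm) sprays; surfactant-containing non-phytotoxic solvent vehicle; loam/sand substrate. Readout: visual % control at 10 d, greenhouse, versus untreated.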

blackgrass [2] = experiment: Test C postemergence; type: in vivo, Alopecurus myosuroides; conditions: 10 days, 0 to 100 scale (0 no effect, 100 complete control)
Summary of the method: as §1

sedge, umbrella = experiment: Test D flooded paddy test; type: in vivo, Cyperus difformis; conditions: 250 g ai/ha, applied to paddy water, visual rating after 13 to 14 days, scale 0 to 100 (0 no effect, 100 complete control)
Summary of the method: (§2)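 Visual ratings from 0, meaning no effect, to 100, meaning complete control, were assigned against untreated controls 13 to 14 days after compounds were added to the floodwater of pots kept 3 cm deep, with plants at the 2-leaf stage.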

ryegrass, Italian [3] = experiment: Test C preemergence; type: in vivo, Lolium multiflorum
Summary of the method: as §1

ryegrass, Italian [4] = experiment: Test C postemergence; type: in vivo, Lolium multiflorum; conditions: 10 days, 0 to 100 scale (0 no effect, 100 complete control)
Summary of the method: as §1

soybean [5] = experiment: Test C preemergence; type: in vivo, Glycine max
Summary of the method: as §1

corn [6] = experiment: Test C preemergence; type: in vivo, Zea mays
Summary of the method: as §1

soybean [7] = experiment: Test C postemergence; type: in vivo, Glycine max; conditions: 10 days, 0 to 100 scale (0 no effect, 100 complete control)
Summary of the method: as §1

rice = experiment: Test D flooded paddy test; type: in vivo, Oryza sativa; conditions: 250 g ai/ha, applied to paddy water, visual rating after 13 to 14 days, scale 0 to 100 (0 no effect, 100 complete control)
Summary of the method: as §2

pigweed, palmer [8] = experiment: Test C preemergence; type: in vivo, Amaranthus palmeri
Summary of the method: as §1

barnyardgrass [9] = experiment: Test D flooded paddy test; type: in vivo, Echinochloa crus-galli; conditions: 250 g ai/ha, applied to paddy water, visual rating after 13 to 14 days, scale 0 to 100 (0 no effect, 100 complete control)
Summary of the method: as §2

ducksalad = experiment: Test D flooded paddy test; type: in vivo, Heteranthera limosa; conditions: 250 g ai/ha, applied to paddy water, visual rating after 13 to 14 days, scale 0 to 100 (0 no effect, 100 complete control)
Summary of the method: as §2

barnyardgrass [10] = experiment: Test C postemergence; type: in vivo, Echinochloa crusgalli; conditions: 10 days, 0 to 100 scale (0 no effect, 100 complete control)
Summary of the method: as §1

kochia [11] = experiment: Test C preemergence; type: in vivo, Bassia scoparia
Summary of the method: as §1

pigweed, palmer [12] = experiment: Test C postemergence; type: in vivo, Amaranthus palmeri; conditions: 10 days, 0 to 100 scale (0 no effect, 100 complete control)
Summary of the method: as §1

horseweed = experiment: Test C postemergence; type: in vivo, Erigeron canadensis; conditions: 10 days, 0 to 100 scale (0 no effect, 100 complete control)
Summary of the method: as §1

galium = experiment: Test C postemergence; type: in vivo, Galium aparine; conditions: 10 days, 0 to 100 scale (0 no effect, 100 complete control)
Summary of the method: as §1

green foxtail [13] = experiment: Test C preemergence; type: in vivo, Setaria viridis
Summary of the method: as §1

wheat [14] = experiment: Test C preemergence; type: in vivo, Triticum aestivum
Summary of the method: as §1

barnyardgrass [15] = experiment: Test C preemergence; type: in vivo, Echinochloa crusgalli
Summary of the method: as §1

oat, wild = experiment: Test C postemergence; type: in vivo, Avena fatua; conditions: 10 days, 0 to 100 scale (0 no effect, 100 complete control)
Summary of the method: as §1

green foxtail [16] = experiment: Test C postemergence; type: in vivo, Setaria viridis; conditions: 10 days, 0 to 100 scale (0 no effect, 100 complete control)
Summary of the method: as §1

blackgrass [17] = experiment: Test C preemergence; type: in vivo, Alopecurus myosuroides
Summary of the method: as §1

corn [18] = experiment: Test C postemergence; type: in vivo, Zea mays; conditions: 10 days, 0 to 100 scale (0 no effect, 100 complete control)
Summary of the method: as §1

ragweed [19] = experiment: Test C preemergence; type: in vivo, Ambrosia artemisiifolia
Summary of the method: as §1

wheat [20] = experiment: Test C postemergence; type: in vivo, Triticum aestivum; conditions: 10 days, 0 to 100 scale (0 no effect, 100 complete control)
Summary of the method: as §1

kochia [21] = experiment: Test C postemergence; type: in vivo, Bassia scoparia; conditions: 10 days, 0 to 100 scale (0 no effect, 100 complete control)
Summary of the method: as §1

[22] = 500 g ai/ha, preemergence, 0 to 100 scale (0 no effect, 100 complete control)
[23] = Preemergence, 125 g ai/ha, 0 to 100 scale, 0 no effect, 100 complete control

Cc1ccc(-n2cnc(C(C)O)n2)cc1C(=O)N1CC(C)Oc2c(Cl)cccc21 (mixture of isomers) [Compound 358]
Plant response rating, Ragweed (ragweed [1]; 500 g ai/ha, postemergence): 80 | Plant response rating, Ragweed (ragweed [1]; Postemergence, 125 g ai/ha): 50 | Plant response rating, Blackgrass (blackgrass [2]; 500 g ai/ha, postemergence): 100 | Plant response rating, Blackgrass (blackgrass [2]; Postemergence, 125 g ai/ha): 90 | Plant response rating, Sedge, Umbrella (Flood) (sedge, umbrella): 90 | Ryegrass, Italian plant response rating (ryegrass, Italian [3]; [22]): 100 | Plant response rating, Ryegrass, Italian (ryegrass, Italian [3]; [23]): 90 | Plant response rating, Ryegrass, Italian (ryegrass, Italian [4]; 500 g ai/ha, postemergence): 100 | Plant response rating, Ryegrass, Italian (ryegrass, Italian [4]; Postemergence, 125 g ai/ha): 90 | Soybean plant response rating (soybean [5]; [22]): 100 | Plant response rating, Soybean (soybean [5]; [23]): 100 | Corn plant response rating (corn [6]; [22]): 70 | Plant response rating, Corn (corn [6]; [23]): 50 | Plant response rating, Soybean (soybean [7]; 500 g ai/ha, postemergence): 100 | Plant response rating, Soybean (soybean [7]; Postemergence, 125 g ai/ha): 100 | Plant response rating, Rice (Flood) (rice): 15 | Pigweed, Palmer plant response rating (pigweed, palmer [8]; [22]): 100 | Plant response rating, Pigweed, Palmer (pigweed, palmer [8]; [23]): 100 | Plant response rating, Barnyardgrass (Flood) (barnyardgrass [9]): 30 | Plant response rating, Ducksalad (Flood) (ducksalad): 95 | Plant response rating, Barnyardgrass (barnyardgrass [10]; 500 g ai/ha, postemergence): 100 | Plant response rating, Barnyardgrass (barnyardgrass [10]; Postemergence, 125 g ai/ha): 90 | Kochia plant response rating (kochia [11]; [22]): 100 | Plant response rating, Kochia (kochia [11]; [23]): 20 | Plant response rating, Pigweed, Palmer (pigweed, palmer [12]; 500 g ai/ha, postemergence): 80 | Plant response rating, Pigweed, Palmer (pigweed, palmer [12]; Postemergence, 125 g ai/ha): 50 | Plant response rating, Horseweed (horseweed; 500 g ai/ha, postemergence): 90 | Plant response rating, Horseweed (horseweed; Postemergence, 125 g ai/ha): 70 | Plant response rating, Galium (galium; 500 g ai/ha, postemergence): 100 | Plant response rating, Galium (galium; Postemergence, 125 g ai/ha): 100 | Foxtail, Green plant response rating (green foxtail [13]; [22]): 100 | Plant response rating, Foxtail, Green (green foxtail [13]; [23]): 100 | Wheat plant response rating (wheat [14]; [22]): 90 | Plant response rating, Wheat (wheat [14]; [23]): 50 | Barnyardgrass plant response rating (barnyardgrass [15]; [22]): 100 | Plant response rating, Barnyardgrass (barnyardgrass [15]; [23]): 100 | Plant response rating, Oat, Wild (oat, wild; 500 g ai/ha, postemergence): 80 | Plant response rating, Oat, Wild (oat, wild; Postemergence, 125 g ai/ha): 30 | Plant response rating, Foxtail, Green (green foxtail [16]; 500 g ai/ha, postemergence): 90 | Plant response rating, Foxtail, Green (green foxtail [16]; Postemergence, 125 g ai/ha): 90 | Blackgrass plant response rating (blackgrass [17]; [22]): 90 | Plant response rating, Blackgrass (blackgrass [17]; [23]): 80 | Plant response rating, Corn (corn [18]; 500 g ai/ha, postemergence): 90 | Plant response rating, Corn (corn [18]; Postemergence, 125 g ai/ha): 90 | Ragweed plant response rating (ragweed [19]; [22]): 90 | Plant response rating, Ragweed (ragweed [19]; [23]): 70 | Plant response rating, Wheat (wheat [20]; 500 g ai/ha, postemergence): 80 | Plant response rating, Wheat (wheat [20]; Postemergence, 125 g ai/ha): 50 | Plant response rating, Kochia (kochia [21]; 500 g ai/ha, postemergence): 70 | Plant response rating, Kochia (kochia [21]; Postemergence, 125 g ai/ha): 40
